Broadly, the IC50 is the concentration needed to halve the response being measured.

For this assay, the target named is recombinant human SAE enzyme (Homo sapiens (Human), UniProt Q9UBT2). Kind of assay: SAE HTRF enzyme assay. Type of assay: biochemical. The settings on record: for Percent Inhibition: SAE inhibition at compound concentration 0.111 μM; for IC50: SAE inhibition, class symbols, legend in nM. The method, boiled down: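 Enzyme reaction: 50 mM HEPES pH 7.5, 5 mM MgCl2, 250 μM GSH, 0.05% BSA, 0.5 μM ATP, 0.01 μM Ubc9-GST, 0.125 μM Sumo-Flag, 0.11 nM SAE; 105 min, 24° C. Stop/detect, 2 h, then HTRF. % inh or IC50.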

Where only a bound is given, the exact number is not on record here.

Chain of recombinant human SAE enzyme (Q9UBT2 whole entry): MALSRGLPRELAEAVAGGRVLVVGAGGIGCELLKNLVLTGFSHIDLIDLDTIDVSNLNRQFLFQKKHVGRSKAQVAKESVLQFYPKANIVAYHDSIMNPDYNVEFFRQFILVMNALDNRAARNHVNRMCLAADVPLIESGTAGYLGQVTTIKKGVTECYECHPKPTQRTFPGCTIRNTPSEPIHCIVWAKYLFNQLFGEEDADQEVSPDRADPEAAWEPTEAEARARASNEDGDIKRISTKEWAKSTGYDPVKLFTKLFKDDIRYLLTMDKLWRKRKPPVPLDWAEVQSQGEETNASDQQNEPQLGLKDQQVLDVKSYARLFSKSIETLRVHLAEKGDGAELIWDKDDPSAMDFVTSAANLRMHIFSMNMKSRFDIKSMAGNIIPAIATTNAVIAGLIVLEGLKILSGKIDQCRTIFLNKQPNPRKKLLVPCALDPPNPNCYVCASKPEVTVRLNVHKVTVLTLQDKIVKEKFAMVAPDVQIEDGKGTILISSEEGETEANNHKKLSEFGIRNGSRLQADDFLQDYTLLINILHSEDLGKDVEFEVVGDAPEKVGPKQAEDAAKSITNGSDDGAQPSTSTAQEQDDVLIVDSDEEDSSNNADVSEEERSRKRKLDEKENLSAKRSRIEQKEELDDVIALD
Chain of recombinant human SAE enzyme (Q9UBE0 whole entry partner): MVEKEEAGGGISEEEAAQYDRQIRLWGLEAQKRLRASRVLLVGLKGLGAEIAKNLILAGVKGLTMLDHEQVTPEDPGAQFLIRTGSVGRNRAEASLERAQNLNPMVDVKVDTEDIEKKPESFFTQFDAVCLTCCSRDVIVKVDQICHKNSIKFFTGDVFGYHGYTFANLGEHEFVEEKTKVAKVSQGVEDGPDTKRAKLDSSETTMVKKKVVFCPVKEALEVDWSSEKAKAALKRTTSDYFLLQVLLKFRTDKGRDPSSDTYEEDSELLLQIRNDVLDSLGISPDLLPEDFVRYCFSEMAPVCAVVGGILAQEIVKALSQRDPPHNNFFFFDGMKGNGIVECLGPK

Turning to `NS(=O)(=O)OC[C@H]1C[C@@H](Nc2ncncc2C(=O)c2cc([C@@H]3OCCCc4ccc(Cl)cc43)cs2)C[C@@H]1O` (single isomer, unassigned) [I-314a, [(1R,2S,4R)-4-{[5-({4-[(1R)-8-chloro-1,3,4,5-tetrahydro-2-benzoxepin-1-yl]-2-thienyl}carbonyl)pyrimidin-4-yl]amino}-2-hydroxycyclopentyl]methyl sulfamate or [(1R,2S,4R)-4-{[5-({4-[(1S)-8-chloro-1,3,4,5-tetrahydro-2-benzoxepin-1-yl]-2-thienyl}carbonyl)pyrimidin-4-yl]amino}-2-hydroxycyclopentyl]methyl sulfamate], the “Percent Inhibition” value is given as 49% and the IC50 was in the range of 100 to 1000 nM.
On to `NS(=O)(=O)OC[C@H]1C[C@@H](Nc2ncncc2C(=O)c2cc([C@@H]3OCCCc4ccc(Cl)cc43)cs2)C[C@@H]1O` (single isomer, unassigned) [I-314b, [(1R,2S,4R)-4-{[5-({4-[(1R)-8-chloro-1,3,4,5-tetrahydro-2-benzoxepin-1-yl]-2-thienyl}carbonyl)pyrimidin-4-yl]amino}-2-hydroxycyclopentyl]methyl sulfamate or [(1R,2S,4R)-4-{[5-({4-[(1S)-8-chloro-1,3,4,5-tetrahydro-2-benzoxepin-1-yl]-2-thienyl}carbonyl)pyrimidin-4-yl]amino}-2-hydroxycyclopentyl]methyl sulfamate], for which the “Percent Inhibition” value is 98% and the IC50 is under 10 nM.
On the same counts, the results for `NS(=O)(=O)OC[C@H]1C[C@@H](Nc2ncncc2C(=O)c2cc(C3SCCc4ccc(Cl)cc43)cs2)C[C@@H]1O` (single isomer, unassigned) [I-320a, [(1R,2S,4R)-4-{[5-({4-[(1R)-7-chloro-3,4-dihydro-1H-isothiochromen-1-yl]-2-thienyl}carbonyl)pyrimidin-4-yl]amino}-2-hydroxycyclopentyl]methyl sulfamate or [(1R,2S,4R)-4-{[5-({4-[(1S)-7-chloro-3,4-dihydro-1H-isothiochromen-1-yl]-2-thienyl}carbonyl)pyrimidin-4-yl]amino}-2-hydroxycyclopentyl]methyl sulfamate] are 27% and 100 to 1000 nM.
The corresponding values for `NS(=O)(=O)OC[C@H]1C[C@@H](Nc2ncncc2C(=O)c2cc(C3SCCc4ccc(Cl)cc43)cs2)C[C@@H]1O` (single isomer, unassigned) [I-320b, [(1R,2S,4R)-4-{[5-({4-[(1R)-7-chloro-3,4-dihydro-1H-isothiochromen-1-yl]-2-thienyl}carbonyl)pyrimidin-4-yl]amino}-2-hydroxycyclopentyl]methyl sulfamate or [(1R,2S,4R)-4-{[5-({4-[(1S)-7-chloro-3,4-dihydro-1H-isothiochromen-1-yl]-2-thienyl}carbonyl)pyrimidin-4-yl]amino}-2-hydroxycyclopentyl]methyl sulfamate] are 93% and under 10 nM.
Consider `NS(=O)(=O)OC[C@H]1C[C@@H](Nc2ncncc2C(=O)c2cc([C@@H]3CCCc4ccc(Cl)cc43)cs2)C[C@@H]1O` (single isomer, unassigned) [I-335a, [(1R,2S,4R)-4-{[5-({4-[(1R)-7-chloro-1,2,3,4-tetrahydronaphthalen-1-yl]-2-thienyl}carbonyl)pyrimidin-4-yl]amino}-2-hydroxycyclopentyl]methyl sulfamate or [(1R,2S,4R)-4-{[5-({4-[(1S)-7-chloro-1,2,3,4-tetrahydronaphthalen-1-yl]-2-thienyl}carbonyl)pyrimidin-4-yl]amino}-2-hydroxycyclopentyl]methyl sulfamate], for which the “Percent Inhibition” value was found to be 14% and the IC50 is 100 to 1000 nM.
On the same counts, the results for `NS(=O)(=O)OC[C@H]1C[C@@H](Nc2ncncc2C(=O)c2cc([C@@H]3CCCc4ccc(Cl)cc43)cs2)C[C@@H]1O` (single isomer, unassigned) [I-335b, [(1R,2S,4R)-4-{[5-({4-[(1R)-7-chloro-1,2,3,4-tetrahydronaphthalen-1-yl]-2-thienyl}carbonyl)pyrimidin-4-yl]amino}-2-hydroxycyclopentyl]methyl sulfamate or [(1R,2S,4R)-4-{[5-({4-[(1S)-7-chloro-1,2,3,4-tetrahydronaphthalen-1-yl]-2-thienyl}carbonyl)pyrimidin-4-yl]amino}-2-hydroxycyclopentyl]methyl sulfamate] are 41% and 100 to 1000 nM.
The corresponding values for `COc1ccc2c(n1)[C@H](c1cc(C(=O)c3cncnc3N[C@@H]3C[C@H](COS(N)(=O)=O)[C@@H](O)C3)sc1C)OCC2` (single isomer, unassigned) [I-339a, [(1R,2S,4R)-2-hydroxy-4-{[5-({4-[(8S)-2-methoxy-5,8-dihydro-6H-pyrano[3,4-b]pyridin-8-yl]-5-methyl-2-thienyl}carbonyl)pyrimidin-4-yl]amino}cyclopentyl]methyl sulfamate or [(1R,2S,4R)-2-hydroxy-4-{[5-({4-[(8R)-2-methoxy-5,8-dihydro-6H-pyrano[3,4-b]pyridin-8-yl]-5-methyl-2-thienyl}carbonyl)pyrimidin-4-yl]amino}cyclopentyl]methyl sulfamate] are 99% and under 10 nM.
For `COc1ccc2c(n1)[C@H](c1cc(C(=O)c3cncnc3N[C@@H]3C[C@H](COS(N)(=O)=O)[C@@H](O)C3)sc1C)OCC2` (single isomer, unassigned) [I-339b, [(1R,2S,4R)-2-hydroxy-4-{[5-({4-[(8S)-2-methoxy-5,8-dihydro-6H-pyrano[3,4-b]pyridin-8-yl]-5-methyl-2-thienyl}carbonyl)pyrimidin-4-yl]amino}cyclopentyl]methyl sulfamate or [(1R,2S,4R)-2-hydroxy-4-{[5-({4-[(8R)-2-methoxy-5,8-dihydro-6H-pyrano[3,4-b]pyridin-8-yl]-5-methyl-2-thienyl}carbonyl)pyrimidin-4-yl]amino}cyclopentyl]methyl sulfamate], the “Percent Inhibition” value is given as 94% and the IC50 is under 10 nM.
As for `NS(=O)(=O)OC[C@H]1C[C@@H](Nc2ncncc2C(=O)c2ccc([C@@H]3OCCCc4ccc(Cl)cc43)s2)C[C@@H]1O` (single isomer, unassigned) [I-343a, [(1R,2S,4R)-4-{[5-({5-[(1R)-8-chloro-1,3,4,5-tetrahydro-2-benzoxepin-1-yl]-2-thienyl}carbonyl)pyrimidin-4-yl]amino}-2-hydroxycyclopentyl]methyl sulfamate or [(1R,2S,4R)-4-{[5-({5-[(1S)-8-chloro-1,3,4,5-tetrahydro-2-benzoxepin-1-yl]-2-thienyl}carbonyl)pyrimidin-4-yl]amino}-2-hydroxycyclopentyl]methyl sulfamate], the “Percent Inhibition” value came to 57% and the IC50 was 10 to 100 nM.
In the case of `NS(=O)(=O)OC[C@H]1C[C@@H](Nc2ncncc2C(=O)c2ccc([C@@H]3OCCCc4ccc(Cl)cc43)s2)C[C@@H]1O` (single isomer, unassigned) [I-343b, [(1R,2S,4R)-4-{[5-({5-[(1R)-8-chloro-1,3,4,5-tetrahydro-2-benzoxepin-1-yl]-2-thienyl}carbonyl)pyrimidin-4-yl]amino}-2-hydroxycyclopentyl]methyl sulfamate or [(1R,2S,4R)-4-{[5-({5-[(1S)-8-chloro-1,3,4,5-tetrahydro-2-benzoxepin-1-yl]-2-thienyl}carbonyl)pyrimidin-4-yl]amino}-2-hydroxycyclopentyl]methyl sulfamate], the “Percent Inhibition” value was 84% and the IC50 fell in the range of 10 to 100 nM.
The corresponding values for `NS(=O)(=O)OC[C@H]1C[C@@H](Nc2ncncc2C(=O)c2cc([C@@H]3CCc4ccc(Cl)cc43)cs2)C[C@@H]1O` (single isomer, unassigned) [I-349a, [(1R,2S,4R)-4-{[5-({4-[(1R)-6-chloro-2,3-dihydro-1H-inden-1-yl]-2-thienyl}carbonyl)pyrimidin-4-yl]amino}-2-hydroxycyclopentyl]methyl sulfamate or [(1R,2S,4R)-4-{[5-({4-[(1S)-6-chloro-2,3-dihydro-1H-inden-1-yl]-2-thienyl}carbonyl)pyrimidin-4-yl]amino}-2-hydroxycyclopentyl]methyl sulfamate] are 42% and 100 to 1000 nM.
On the same counts, the results for `NS(=O)(=O)OC[C@H]1C[C@@H](Nc2ncncc2C(=O)c2cc([C@@H]3CCc4ccc(Cl)cc43)cs2)C[C@@H]1O` (single isomer, unassigned) [I-349b, [(1R,2S,4R)-4-{[5-({4-[(1R)-6-chloro-2,3-dihydro-1H-inden-1-yl]-2-thienyl}carbonyl)pyrimidin-4-yl]amino}-2-hydroxycyclopentyl]methyl sulfamate or [(1R,2S,4R)-4-{[5-({4-[(1S)-6-chloro-2,3-dihydro-1H-inden-1-yl]-2-thienyl}carbonyl)pyrimidin-4-yl]amino}-2-hydroxycyclopentyl]methyl sulfamate] are 58% and 10 to 100 nM.
The corresponding values for `Cc1sc(C(=O)c2cncnc2N[C@@H]2C[C@H](COS(N)(=O)=O)[C@@H](O)C2)nc1[C@H](O)c1cccc(Cl)c1` (single isomer, unassigned) [I-355a, [(1R,2S,4R)-4-{[5-({4-[(R)-(3-chlorophenyl)(hydroxy)methyl]-5-methyl-1,3-thiazol-2-yl}carbonyl)pyrimidin-4-yl]amino}-2-hydroxycyclopentyl]methyl sulfamate or [(1R,2S,4R)-4-{[5-({4-[(S)-(3-chlorophenyl)(hydroxy)methyl]-5-methyl-1,3-thiazol-2-yl}carbonyl)pyrimidin-4-yl]amino}-2-hydroxycyclopentyl]methyl sulfamate] are 98% and under 10 nM.

Source of the values: patent publication US10780090B2, “Heteroaryl compounds useful as inhibitors of SUMO activating enzyme” (Millennium Pharmaceuticals, Inc., priority 2014, dated 2020).
